The results in this text go back to US20190225650A1, “PEPTIDOMIMETIC MACROCYCLES AND USE THEREOF IN REGULATING HIF1ALPHA” (AILERON THERAPEUTICS, INC., priority 2013, published 2019).

Assay [1] has as its system HRE-bla ME-180 cells. Nature of the assay: Reporter gene assay (HRE-bla ME-180 HIF reporter, GeneBLAzer). The class given is cell-based, human. The conditions noted are these: for EC50: 24 hour normoxia. In short, it runs like this: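 A FRET β-lactamase readout of HIF transcription was used. After compound treatment in 0.3% DMSO/media under normoxic conditions, 20 μl of 6× LiveBLAzer-FRET B/G (CCF4-AM) substrate was added. Plates sat 3 hr at room temperature in the dark and were read at 409 Ex/460Em and 409Ex/530Em on a Synergy 2. Inhibition was compared against DMSO vehicle controls, with chetomin as positive control.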
(Reporter assays use an easily measured gene product as a stand-in for the process of interest.)

In assay [2] the test system is HRE-bla ME-180 cells. Nature of the assay: Cell proliferation assay (viability, MTT, 1% FBS). The class given is cell-based, human. In short, it runs like this:
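ME-180 cells (2×10^4/well) in Opti-MEM with 1% FBS were pretreated 16 h under normoxia (21% O2), vehicle 0.5% DMSO final. Incubation then continued under normoxia or hypoxia (1% O2); viable cells quantified by MTT-type CellTiter 96 assay.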

In assay [3] the target is T1, flag-tagged HIF1α (AA 786-826) / His6-tagged p300 (AA 323-423) complex (Homo sapiens, UniProt Q09472).
T1 construct: His6-tagged p300 (AA 323-423); made in house; host or cells: E. coli (pETDuet vector)
Nature of the assay: HIF1α p300 displacement assay (TR FRET, +CHAPS). The format is binding. To be noted: read-out: IC50 (nM) (HIF1α_p300 Displacement + CHAPS). In short, it runs like this:
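The co-expressed flag-HIF1α (786-826)/His6-p300 (323-423) complex, purified from E. coli with 0.1 mM ZnSO4, was used at 300 nM final with competitor peptides for 1 h at room temperature. Buffer was 150 mM NaCl, 20 mM HEPES pH 7.4, 7.5 mM CHAPS and 1 mM DTT. Anti-Flag-K (0.5 μM) and anti-His-D2 (4 nM) were then added for 2 h, and IC50s were fitted from the TR-FRET ratio.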
On the technique in general: TR-FRET usually uses a lanthanide donor and a delayed reading to cut background.

Bridge positions count the residues as written; N and C are the ends. Square brackets hold non-standard residues; d marks the D form. Peptide text beside a SMILES is read from it. S5 = C=CCCC[C@](C)(N)C(=O)O; Nle = CCCC[C@H](N)C(=O)O

In general, EC50 refers to the concentration that produces a half-maximal response. Broadly, the IC50 is the concentration needed to halve the response being measured. Turning to `CC[C@H](C)[C@H](NC(=O)[C@H](Cc1ccccc1)NC(C)=O)C(=O)N[C@@H](CC(=O)O)C(=O)N[C@@H](CCC(=O)O)C(=O)N[C@@H](CC(N)=O)C(=O)N[C@H](C(=O)N[C@@H](CC(C)C)C(=O)N[C@@H](CCSC)C(=O)N[C@@]1(C)CCCC=CCCC[C@@](C)(C(=O)N[C@@H](CCSC)C(=O)N[C@@H](C)C(=O)N[C@@H](CC(C)C)C(N)=O)NC(=O)[C@H]([C@@H](C)CC)NC(=O)[C@H](C(C)C)NC(=O)[C@H](CC(C)C)NC1=O)C(C)C` [SP-235] (Ac-FIDENVLM[S5]LVI[S5]MAL-NH2; staple 9-13), in assay [1], the “18 h Avg % max inhibition at top conc (HIF Rptr-24 hrs normoxia) (μM)” value (from here on “18 h Avg % max inhibition at top conc”) is “+++ (≤25 but <50: +++)” and the EC50 lay within 15 to 30 µM. Moreover, the “Viability 1% FBS AVG (MTT V3-24 hr Normoxia) (μM)” value (from here on “Viability 1% FBS AVG”) in assay [2] is reported as “++++ (≥30: ++++)”. The IC50 in assay [3] was above 700 nM.
In the same order, the values of `CC[C@H](C)[C@H](NC(=O)[C@H](Cc1ccccc1)NC(C)=O)C(=O)N[C@@H](CC(=O)O)C(=O)N[C@@H](CCC(=O)O)C(=O)N[C@@H](CCC(=O)O)C(=O)N[C@H](C(=O)N[C@@H](CC(C)C)C(=O)N[C@@H](CCSC)C(=O)N[C@@]1(C)CCCC=CCCC[C@@](C)(C(=O)N[C@@H](CCSC)C(=O)N[C@@H](C)C(=O)N[C@@H](CC(C)C)C(N)=O)NC(=O)[C@H]([C@@H](C)CC)NC(=O)[C@H](C(C)C)NC(=O)[C@H](Cc2ccccc2)NC1=O)C(C)C` [SP-236] (Ac-FIDEEVLM[S5]FVI[S5]MAL-NH2; staple 9-13) are “+++ (≤25 but <50: +++)”, above 30 µM, “++++ (≥30: ++++)” and above 700 nM.
For the compound `CCCC[C@H](NC(=O)[C@H](Cc1ccccc1)NC(=O)[C@@H](NC(=O)[C@H](CCC(=O)O)NC(=O)[C@H](CCC(=O)O)NC(=O)[C@H](CC(=O)O)NC(=O)[C@@H](NC(C)=O)[C@@H](C)CC)C(C)C)C(=O)N[C@@]1(C)CCCC=CCCC[C@@](C)(C(=O)N[C@@H](CCCC)C(=O)N[C@@H](C)C(=O)N[C@@H](CC(C)C)C(=O)N[C@@H](CC(C)C)C(N)=O)NC(=O)[C@H]([C@@H](C)CC)NC(=O)[C@H](C(C)C)NC(=O)[C@H](CC(C)C)NC1=O` [SP-243] (Ac-IDEEVF[Nle][S5]LVI[S5][Nle]ALL-NH2; staple 8-12), in assay [1], the “18 h Avg % max inhibition at top conc” value is given as “++++ (≥50: ++++)” and the EC50 was 15 to 30 µM. In assay [2], the “Viability 1% FBS AVG” value is recorded as “++++ (≥30: ++++)”. Further, the IC50 in assay [3] fell in the range of 400 to 700 nM.
As for `CCCC[C@H](NC(=O)[C@H](Cc1ccccc1)NC(=O)[C@@H](NC(=O)[C@H](CCC(=O)O)NC(=O)[C@H](CCC(=O)O)NC(=O)[C@H](CC(=O)O)NC(C)=O)C(C)C)C(=O)N[C@@]1(C)CCCC=CCCC[C@@](C)(C(=O)N[C@@H](CCCC)C(=O)N[C@@H](C)C(=O)N[C@@H](CC(C)C)C(=O)N[C@@H](CC(C)C)C(N)=O)NC(=O)[C@H]([C@@H](C)CC)NC(=O)[C@H](C(C)C)NC(=O)[C@H](CC(C)C)NC1=O` [SP-244] (Ac-DEEVF[Nle][S5]LVI[S5][Nle]ALL-NH2; staple 7-11), in assay [1], the “18 h Avg % max inhibition at top conc” value is “++++ (≥50: ++++)” and the EC50 was at most 5 µM. Further, the “Viability 1% FBS AVG” value in assay [2] was “++++ (≥30: ++++)”. The IC50 in assay [3] was above 700 nM.
In the same order, the values of `CCCC[C@H](NC(=O)[C@]1(C)CCCC=CCCC[C@](C)(NC(=O)[C@H](C)NC(=O)[C@H](Cc2ccccc2)NC(=O)[C@@H](NC(=O)[C@H](CCC(=O)O)NC(=O)[C@H](CCC(=O)O)NC(=O)[C@H](CC(=O)O)NC(=O)[C@@H](NC(=O)[C@H](Cc2ccccc2)NC(C)=O)[C@@H](C)CC)C(C)C)C(=O)N[C@@H](CC(C)C)C(=O)N[C@@H](C(C)C)C(=O)N[C@@H]([C@@H](C)CC)C(=O)N1)C(=O)N[C@@H](C)C(=O)N[C@@H](CC(C)C)C(=O)N[C@@H](CC(C)C)C(N)=O` [SP-246] (Ac-FIDEEVFA[S5]LVI[S5][Nle]ALL-NH2; staple 9-13) are “+ (<10: +)”, above 30 µM, “++++ (≥30: ++++)” and above 700 nM.
On the same counts, the results for `CCCC[C@H](NC(=O)[C@H](Cc1ccccc1)NC(=O)[C@@H](NC(=O)[C@H](CCC(=O)O)NC(=O)[C@H](CCC(=O)O)NC(=O)[C@H](CC(=O)O)NC(=O)[C@@H](NC(=O)[C@H](Cc1ccccc1)NC(C)=O)[C@@H](C)CC)C(C)C)C(=O)N[C@@]1(C)CCCC=CCCC[C@@](C)(C(=O)N[C@@H](C)C(=O)N[C@@H](C)C(=O)N[C@@H](CC(C)C)C(=O)N[C@@H](CC(C)C)C(N)=O)NC(=O)[C@H]([C@@H](C)CC)NC(=O)[C@H](C(C)C)NC(=O)[C@H](CC(C)C)NC1=O` [SP-247] (Ac-FIDEEVF[Nle][S5]LVI[S5]AALL-NH2; staple 9-13) are “+++ (≤25 but <50: +++)”, 15 to 30 µM, “++++ (≥30: ++++)” and 400 to 700 nM.
With `CCCC[C@H](NC(=O)[C@H](Cc1ccccc1)NC(=O)[C@@H](NC(=O)[C@H](CCC(N)=O)NC(=O)[C@H](CCC(N)=O)NC(=O)[C@H](CC(N)=O)NC(=O)[C@@H](NC(=O)[C@H](Cc1ccccc1)NC(C)=O)[C@@H](C)CC)C(C)C)C(=O)N[C@@]1(C)CCCC=CCCC[C@@](C)(C(=O)N[C@@H](CCCC)C(=O)N[C@@H](C)C(=O)N[C@@H](CC(C)C)C(=O)N[C@@H](CC(C)C)C(N)=O)NC(=O)[C@H]([C@@H](C)CC)NC(=O)[C@H](C(C)C)NC(=O)[C@H](CC(C)C)NC1=O` [SP-248] (Ac-FINQQVF[Nle][S5]LVI[S5][Nle]ALL-NH2; staple 9-13), in assay [1], the “18 h Avg % max inhibition at top conc” value is on record as “+++ (≤25 but <50: +++)” and the EC50 was above 30 µM. Besides, in assay [2], the “Viability 1% FBS AVG” value was “++++ (≥30: ++++)”. Also, the IC50 in assay [3] was above 700 nM.
On the same counts, the results for `CCCC[C@H](NC(=O)[C@H](Cc1ccccc1)NC(=O)[C@@H](NC(=O)[C@H](C)NC(=O)[C@H](CCC(=O)O)NC(=O)[C@H](CC(=O)O)NC(=O)[C@@H](NC(=O)[C@H](Cc1ccccc1)NC(C)=O)[C@@H](C)CC)C(C)C)C(=O)N[C@@]1(C)CCCC=CCCC[C@@](C)(C(=O)N[C@@H](CCCC)C(=O)N[C@@H](C)C(=O)N[C@@H](CC(C)C)C(=O)N[C@@H](CC(C)C)C(N)=O)NC(=O)[C@H]([C@@H](C)CC)NC(=O)[C@H](C(C)C)NC(=O)[C@H](CC(C)C)NC1=O` [SP-249] (Ac-FIDEAVF[Nle][S5]LVI[S5][Nle]ALL-NH2; staple 9-13) are “+ (<10: +)”, above 30 µM, “++++ (≥30: ++++)” and above 700 nM.
In the case of `CCCC[C@H](NC(=O)[C@H](Cc1ccccc1)NC(=O)[C@@H](NC(=O)[C@H](C)NC(=O)[C@H](CCC(N)=O)NC(=O)[C@H](CC(=O)O)NC(=O)[C@@H](NC(=O)[C@H](Cc1ccccc1)NC(C)=O)[C@@H](C)CC)C(C)C)C(=O)N[C@@]1(C)CCCC=CCCC[C@@](C)(C(=O)N[C@@H](CCCC)C(=O)N[C@@H](C)C(=O)N[C@@H](CC(C)C)C(=O)N[C@@H](CC(C)C)C(N)=O)NC(=O)[C@H]([C@@H](C)CC)NC(=O)[C@H](C(C)C)NC(=O)[C@H](CC(N)=O)NC1=O` [SP-251] (Ac-FIDQAVF[Nle][S5]NVI[S5][Nle]ALL-NH2; staple 9-13), in assay [1], the “18 h Avg % max inhibition at top conc” value is “++++ (≥50: ++++)” and the EC50 was at most 5 µM. In assay [2], the “Viability 1% FBS AVG” value was “+ (<5: +)”. The IC50 in assay [3] was above 700 nM.
Take `CCCC[C@H](NC(=O)[C@H](Cc1ccccc1)NC(=O)[C@@H](NC(=O)[C@H](C)NC(=O)[C@H](CCC(N)=O)NC(=O)[C@H](CC(=O)O)NC(=O)[C@@H](NC(=O)[C@H](Cc1ccccc1)NC(C)=O)[C@@H](C)CC)C(C)C)C(=O)N[C@@]1(C)CCCC=CCCC[C@@](C)(C(=O)N[C@@H](CCCC)C(=O)N[C@@H](C)C(=O)N[C@@H](CC(C)C)C(=O)N[C@@H](CC(C)C)C(N)=O)NC(=O)[C@H]([C@@H](C)CC)NC(=O)[C@H](C(C)C)NC(=O)[C@H](CO)NC1=O` [SP-252] (Ac-FIDQAVF[Nle][S5]SVI[S5][Nle]ALL-NH2; staple 9-13): in assay [1], the “18 h Avg % max inhibition at top conc” value is given as “++++ (≥50: ++++)” and the EC50 was at most 5 µM. Besides, the “Viability 1% FBS AVG” value in assay [2] is reported as “++ (≤5 but <15: ++)”. For the same compound, the IC50 in assay [3] was above 700 nM.
Consider `CCCC[C@H](NC(=O)[C@H](Cc1ccccc1)NC(=O)[C@@H](NC(=O)[C@H](C)NC(=O)[C@H](CCC(N)=O)NC(=O)[C@H](CC(=O)O)NC(=O)[C@@H](NC(=O)[C@H](Cc1ccccc1)NC(C)=O)[C@@H](C)CC)C(C)C)C(=O)N[C@@]1(C)CCCC=CCCC[C@@](C)(C(=O)N[C@@H](CCCNC(=N)N)C(=O)N[C@@H](C)C(=O)N[C@@H](CC(C)C)C(=O)N[C@@H](CC(C)C)C(N)=O)NC(=O)[C@H]([C@@H](C)CC)NC(=O)[C@H](C(C)C)NC(=O)[C@H](CC(C)C)NC1=O` [SP-256] (Ac-FIDQAVF[Nle][S5]LVI[S5]RALL-NH2; staple 9-13), for which, in assay [1], the “18 h Avg % max inhibition at top conc” value was “++++ (≥50: ++++)” and the EC50 was at most 5 µM. In addition, in assay [2], the “Viability 1% FBS AVG” value is recorded as “++ (≤5 but <15: ++)”. Further, in assay [3], the IC50 is above 700 nM.
